Results reported in US20180024136A1, “Development of ABCG2-Sensitive Fluorescent Probe For Isolation of ABCG2low Neural Stem/Progenitor Cells” (National University of Singapore, priority 2015, published 2018).

Key:
differentiated NS5 cells = assay: CDg13 staining of differentiated NS5 cells under ABC transporter inhibitors (flow cytometry); type: cell-based, mouse; details: inhibitor during staining
Procedure: (§1) Flow cytometry was performed using Attune Cytometer (Invitrogen). Hoechest33342 (2 μM) and CDg13 (1 μM) are incubated with culture media for 1 hours and detached as single cells. The collected cells were suspended in BSA- and FBS-free DMEM to prevent loss of CDg13 signal. The average fluorescence intensity of total cells in each experimental group was analyzed by Attune cytometer software for quantification study.

NS-5 cells = assay: CDg13 staining of NS5 cells under STF31, ionomycin or Ko143; type: cell-based, mouse; details: STF31 2 μM, ionomycin 0.1 μM, Ko143 0.5 μM
Procedure: FIGS. 7A-7C show CDg13 stains depending on Abcg2 activity: (A) CDg13 (1 μM) were stained for 1 hour in live (A-1) or dead cells treated with 4% PFA (A-2) (representative image of three independent experiments, and (B) and (C) NS5 cells were treated STF31 (2 μM), ionomycin (0.1 μM) or Ko143 (0.5 μM) with treatment of CDg13 and Hoechst33342 under normal media (control had same amount of DMSO (0.2%) with other drugs treated group), staining intensity is shown by epifluorescence microscopy (B) or flow cytometry (C) (bar: 50 μm).
as §1

ABCB1 = ABCB1 (Homo sapiens, UniProt P08183); assay: Probe fluorescence in HCT-15 cells under verapamil; details: HCT-15, 10 to 10,000 nM verapamil
Sequence of ABCB1 (P08183 whole entry): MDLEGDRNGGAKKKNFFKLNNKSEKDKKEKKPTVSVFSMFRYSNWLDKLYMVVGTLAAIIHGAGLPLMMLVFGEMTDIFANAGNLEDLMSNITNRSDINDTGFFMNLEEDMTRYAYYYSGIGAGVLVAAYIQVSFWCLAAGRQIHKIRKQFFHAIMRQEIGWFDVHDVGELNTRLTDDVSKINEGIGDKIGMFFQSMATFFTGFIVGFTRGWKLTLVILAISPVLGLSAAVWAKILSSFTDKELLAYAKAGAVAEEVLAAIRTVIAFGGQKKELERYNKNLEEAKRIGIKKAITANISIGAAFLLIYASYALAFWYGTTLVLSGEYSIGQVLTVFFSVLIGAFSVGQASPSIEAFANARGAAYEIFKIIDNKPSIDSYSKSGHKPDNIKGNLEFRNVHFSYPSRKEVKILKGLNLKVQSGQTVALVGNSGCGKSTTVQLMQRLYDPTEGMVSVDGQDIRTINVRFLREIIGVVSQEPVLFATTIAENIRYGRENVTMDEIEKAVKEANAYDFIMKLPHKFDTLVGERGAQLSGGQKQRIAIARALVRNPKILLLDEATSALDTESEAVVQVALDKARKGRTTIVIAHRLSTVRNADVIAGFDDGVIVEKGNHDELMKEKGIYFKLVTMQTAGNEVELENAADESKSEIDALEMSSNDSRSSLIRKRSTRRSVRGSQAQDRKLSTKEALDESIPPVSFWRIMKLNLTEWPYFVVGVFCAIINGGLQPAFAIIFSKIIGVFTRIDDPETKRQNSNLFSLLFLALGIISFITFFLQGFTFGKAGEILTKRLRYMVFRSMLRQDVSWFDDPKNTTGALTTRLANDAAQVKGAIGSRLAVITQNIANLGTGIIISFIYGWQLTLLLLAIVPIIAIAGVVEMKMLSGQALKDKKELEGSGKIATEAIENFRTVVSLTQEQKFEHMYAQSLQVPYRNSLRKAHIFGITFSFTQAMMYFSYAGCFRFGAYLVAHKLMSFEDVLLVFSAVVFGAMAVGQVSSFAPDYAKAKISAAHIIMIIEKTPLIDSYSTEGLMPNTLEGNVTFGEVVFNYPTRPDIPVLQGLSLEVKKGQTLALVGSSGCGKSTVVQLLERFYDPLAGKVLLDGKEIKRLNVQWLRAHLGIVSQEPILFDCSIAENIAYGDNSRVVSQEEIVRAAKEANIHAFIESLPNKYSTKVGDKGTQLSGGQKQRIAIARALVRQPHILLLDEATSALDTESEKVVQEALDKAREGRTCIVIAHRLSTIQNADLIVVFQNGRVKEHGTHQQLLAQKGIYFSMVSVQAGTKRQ

ABCG2 = target: T1, ABCG2 (Homo sapiens, UniProt Q9UNQ0); assay: Probe fluorescence in ABCG2/KB3-1 cells under Ko143; details: ABCG2/KB3-1, 10 to 1,000 nM Ko143
T1 sequence (Q9UNQ0 1-655): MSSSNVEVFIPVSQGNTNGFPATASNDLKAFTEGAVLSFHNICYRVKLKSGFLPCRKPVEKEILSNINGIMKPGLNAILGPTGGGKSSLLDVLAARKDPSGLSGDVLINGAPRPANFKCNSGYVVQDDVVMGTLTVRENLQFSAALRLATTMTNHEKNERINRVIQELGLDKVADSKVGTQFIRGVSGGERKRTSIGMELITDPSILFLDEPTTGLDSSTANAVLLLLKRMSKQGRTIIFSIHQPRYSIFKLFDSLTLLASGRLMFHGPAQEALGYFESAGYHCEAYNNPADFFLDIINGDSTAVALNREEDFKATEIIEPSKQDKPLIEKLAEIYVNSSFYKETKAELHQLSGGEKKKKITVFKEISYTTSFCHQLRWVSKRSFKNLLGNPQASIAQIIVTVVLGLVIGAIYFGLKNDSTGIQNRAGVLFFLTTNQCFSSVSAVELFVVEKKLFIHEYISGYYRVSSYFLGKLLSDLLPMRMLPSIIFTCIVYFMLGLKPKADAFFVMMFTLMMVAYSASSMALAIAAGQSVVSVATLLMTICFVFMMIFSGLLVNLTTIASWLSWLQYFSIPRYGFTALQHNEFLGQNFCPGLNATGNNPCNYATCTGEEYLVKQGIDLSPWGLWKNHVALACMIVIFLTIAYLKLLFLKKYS

human KB3-1 cells = assay: MTS viability assay on KB3-1 cells; type: cell-based; details: 48 h

## COc1ccc2c3c([nH]c2c1)[C@H](CC(C)C)N1C(=O)[C@H](CCC(=O)OC(C)(C)C)NC(=O)[C@@H]1C3 [Ko143]
Differentiated NS5 cells
  staining of CDg13 versus DMSO control: around 2.5 fold
NS-5 cells
  effect on CDg13 staining: stained CDg13 more strongly than normal NS-5 cells

## CCOc1ccc(-c2nc3ccc(-c4nc5ccc(N6CCN(C)CC6)cc5[nH]4)cc3[nH]2)cc1 [Hoechst 33342]
ABCB1
  fold change of staining: up to 1.5 fold
ABCG2
  fold change in fluorescence intensity: up to 1.3 fold
Human KB3-1 cells; 1 μM
  death rate: 25%
Human KB3-1 cells; 10 μM
  cell death: 100%
